Data on 57 molecules can be found in ChEMBL document CHEMBL3217623, “Tacrine-mefenamic acid hybrids for inhibition of acetylcholinesterase” (Medchemcomm, 2011).

Test [1] deals with T1, Acetylcholinesterase (Torpedo californica, UniProt P04058). The test can be described thus: Inhibition of Torpedo californica […] AChE using acetylthiocholine/DTNB as substrate preincubated for 10 mins followed by substrate addition measured every 30 secs for 30 mins by Ellmans method. Details: species or system Tetronarce californica.
T1 sequence (P04058 whole entry): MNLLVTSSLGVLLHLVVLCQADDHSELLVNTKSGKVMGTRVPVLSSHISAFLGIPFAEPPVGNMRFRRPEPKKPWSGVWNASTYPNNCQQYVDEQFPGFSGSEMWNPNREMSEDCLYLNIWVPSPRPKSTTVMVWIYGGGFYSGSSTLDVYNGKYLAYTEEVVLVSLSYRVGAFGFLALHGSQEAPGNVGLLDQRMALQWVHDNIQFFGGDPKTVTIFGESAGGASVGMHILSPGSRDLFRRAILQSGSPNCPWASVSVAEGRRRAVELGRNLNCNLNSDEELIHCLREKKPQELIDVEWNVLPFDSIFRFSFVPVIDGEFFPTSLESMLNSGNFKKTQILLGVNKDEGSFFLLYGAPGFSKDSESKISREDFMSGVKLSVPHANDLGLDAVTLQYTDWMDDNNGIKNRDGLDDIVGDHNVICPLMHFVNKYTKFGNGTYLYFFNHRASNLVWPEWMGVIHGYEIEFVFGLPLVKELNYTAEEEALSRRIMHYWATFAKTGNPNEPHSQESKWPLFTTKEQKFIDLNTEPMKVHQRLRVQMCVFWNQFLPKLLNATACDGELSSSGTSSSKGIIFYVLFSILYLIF
The target in test [2] is T1, Acetylcholinesterase. The test can be described thus: Inhibition of Torpedo californica […] AChE using acetylthiocholine/DTNB as substrate assessed as ROS-induced enzyme inactivation preincubated for 10 mins followed by substrate addition measured every 30 secs for 20 mins in presence of horseradish peroxidase and H2O2. More on the design: species or system Tetronarce californica.

The target of test [3] is Acetylcholinesterase (Torpedo californica) (UniProt P04058). The test can be described thus: Non-competitive inhibition of Torpedo californica […] AChE using acetylthiocholine as substrate at 0.2 to 5 uM measured for 2 mins by Lineweaver-Burk plot analysis. The settings on record: Tetronarce californica.
Acetylcholinesterase (Torpedo californica), sequence (P04058 22-564 limits assumed): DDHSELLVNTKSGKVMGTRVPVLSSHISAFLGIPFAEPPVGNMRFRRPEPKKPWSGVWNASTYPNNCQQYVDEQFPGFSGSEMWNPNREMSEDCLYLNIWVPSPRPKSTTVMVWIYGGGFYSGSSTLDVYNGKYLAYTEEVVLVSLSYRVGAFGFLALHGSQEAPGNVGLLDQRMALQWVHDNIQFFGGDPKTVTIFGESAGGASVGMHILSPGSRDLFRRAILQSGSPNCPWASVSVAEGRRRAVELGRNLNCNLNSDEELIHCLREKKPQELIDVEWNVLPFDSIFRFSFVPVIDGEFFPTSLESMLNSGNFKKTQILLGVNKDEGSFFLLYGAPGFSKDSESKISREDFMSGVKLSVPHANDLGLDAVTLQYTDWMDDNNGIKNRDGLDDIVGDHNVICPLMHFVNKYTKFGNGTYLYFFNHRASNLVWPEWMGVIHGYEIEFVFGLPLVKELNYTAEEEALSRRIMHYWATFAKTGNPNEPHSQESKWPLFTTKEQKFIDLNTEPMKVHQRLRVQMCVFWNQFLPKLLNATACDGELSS

Active and inactive are the calls of the source. No cut-off for these calls is given here. A value given as a limit tells only on which side of the number the result lay.

Turning to `Cc1cccc(Nc2ccccc2C(=O)NCCCCCCCCCCNc2c3c(nc4cc(Cl)ccc24)CCCC3)c1C`, the IC50 against Acetylcholinesterase [1] was 0.000776 µM; at Acetylcholinesterase [2], 1.85 nM.
As to `Cc1cccc(Nc2ccccc2C(=O)NCCCCCCCNc2c3c(nc4cc(Cl)ccc24)CCCC3)c1C`, the IC50 on Acetylcholinesterase [1] amounted to 1.38 µM; on Acetylcholinesterase [2], 29.8 nM.
Take `Cc1cccc(Nc2ccccc2C(=O)NCCCCCC(=O)NCCCNc2c3c(nc4ccccc24)CCCC3)c1C`: the IC50 against Acetylcholinesterase [1] is 0.811 µM; on Acetylcholinesterase [2], 20.2 nM.
In the same order, the values of `Cc1cccc(Nc2ccccc2C(=O)NCC(=O)NCCCCCCCCNc2c3c(nc4ccccc24)CCCC3)c1C` are 0.0033 µM and 17.2 nM.
`Cc1cccc(Nc2ccccc2C(=O)NCCCCCC(=O)NCCCCNc2c3c(nc4ccccc24)CCCC3)c1C`: the IC50 at Acetylcholinesterase [1] worked out at 1.86 µM; at Acetylcholinesterase [2], 34 nM.
On to `Cc1cccc(Nc2ccccc2C(=O)NCC(=O)NCCCCNc2c3c(nc4ccccc24)CCCC3)c1C`, for which the IC50 was 0.262 µM against Acetylcholinesterase [1] and 53.6 nM at Acetylcholinesterase [2].
In the same order, the values of `Cc1cccc(Nc2ccccc2C(=O)NCCC(=O)NCCCCNc2c3c(nc4ccccc24)CCCC3)c1C` are 0.426 µM and 2.43 nM.
In the same order, the values of `Cc1cccc(Nc2ccccc2C(=O)NCCCC(=O)NCCCCNc2c3c(nc4cc(Cl)ccc24)CCCC3)c1C` are 0.0136 µM and 12.4 nM.
In the same order, the values of `Cc1cccc(Nc2ccccc2C(=O)NCCC(=O)NCCCCCCNc2c3c(nc4ccccc24)CCCC3)c1C` are 0.985 µM and 40.2 nM.
As to `Cc1cccc(Nc2ccccc2C(=O)NCCCC(=O)NCCCCCCCCNc2c3c(nc4ccccc24)CCCC3)c1C`, the values for the IC50 at Acetylcholinesterase [1] and at Acetylcholinesterase [2] were 0.0174 µM and 14.6 nM, respectively.
As for `Cc1cccc(Nc2ccccc2C(=O)NCCCCCC(=O)NCCCNc2c3c(nc4cc(Cl)ccc24)CCCC3)c1C`, the IC50 against Acetylcholinesterase [1] turned out to be 0.00165 µM; on Acetylcholinesterase [2] it was 7.85 nM.
Take `Cc1cccc(Nc2ccccc2C(=O)NCCCC(=O)NCCCCCCCNc2c3c(nc4ccccc24)CCCC3)c1C`: the IC50 stood at 0.00809 µM on Acetylcholinesterase [1] and 44.6 nM at Acetylcholinesterase [2].
In the same order, the values of `Cc1cccc(Nc2ccccc2C(=O)NCCCCCCCCCCCCNc2c3c(nc4cc(Cl)ccc24)CCCC3)c1C` are 2.36 µM and 16.2 nM.
`CN(C)C(=O)Oc1cccc([N+](C)(C)C)c1` [NEOSTIGMINE] came in with an IC50 on Acetylcholinesterase [1] of 0.0046 µM.
For the molecule `Cc1cccc(Nc2ccccc2C(=O)NCC(=O)NCCCCCCNc2c3c(nc4cc(Cl)ccc24)CCCC3)c1C`, the IC50 is 0.00765 µM against Acetylcholinesterase [1] and 3.46 nM on Acetylcholinesterase [2].
In turn, `CN(C)C(=O)Oc1ccc[n+](C)c1` [PYRIDOSTIGMINE] yielded an IC50 on Acetylcholinesterase [1] of 0.082 µM.
As for `Cc1cccc(Nc2ccccc2C(=O)NCCCCCCNc2c3c(nc4ccccc24)CCCC3)c1C`, the IC50 at Acetylcholinesterase [1] came to 0.00224 µM; on Acetylcholinesterase [2] it was 0.129 nM.
In the case of `Cc1cccc(Nc2ccccc2C(=O)NCCCCCCCCNc2c3c(nc4cc(Cl)ccc24)CCCC3)c1C`, the IC50 is 0.000495 µM against Acetylcholinesterase [1] and 1.49 nM on Acetylcholinesterase [2].
Consider `Cc1cccc(Nc2ccccc2C(=O)NCCCC(=O)NCCCNc2c3c(nc4cc(Cl)ccc24)CCCC3)c1C`, for which the IC50 amounted to 0.00713 µM against Acetylcholinesterase [1] and 1.03 nM at Acetylcholinesterase [2].
As for `Cc1cccc(Nc2ccccc2C(=O)NCCCC(=O)NCCCCCCNc2c3c(nc4cc(Cl)ccc24)CCCC3)c1C`, the values for the IC50 against Acetylcholinesterase [1] and at Acetylcholinesterase [2] were 0.0417 µM and 15.6 nM, respectively.
Take `Cc1cccc(Nc2ccccc2C(=O)NCCC(=O)NCCCCCCCCNc2c3c(nc4cc(Cl)ccc24)CCCC3)c1C`: the IC50 against Acetylcholinesterase [1] is 0.0183 µM; at Acetylcholinesterase [2] it was 4.97 nM.
As for `Cc1cccc(Nc2ccccc2C(=O)NCCCC(=O)NCCCCCCCCNc2c3c(nc4cc(Cl)ccc24)CCCC3)c1C`, the values for the IC50 on Acetylcholinesterase [1] and at Acetylcholinesterase [2] were 0.017 µM and 6.59 nM, respectively.
In the same order, the values of `Cc1cccc(Nc2ccccc2C(=O)NCC(=O)NCCCNc2c3c(nc4cc(Cl)ccc24)CCCC3)c1C` are 0.0281 µM and 3.1 nM.
Consider `Cc1cccc(Nc2ccccc2C(=O)NCCCCCCCCCCNc2c3c(nc4ccccc24)CCCC3)c1C`, for which the IC50 against Acetylcholinesterase [1] is 0.385 µM; at Acetylcholinesterase [2], 0.908 nM. Further, the inhibition entry in test [3] is “Active”.
As for `Cc1cccc(Nc2ccccc2C(=O)NCC(=O)NCCCCCCNc2c3c(nc4ccccc24)CCCC3)c1C`, the values for the IC50 against Acetylcholinesterase [1] and on Acetylcholinesterase [2] were 0.0183 µM and 54.8 nM, respectively.
As to `Cc1cccc(Nc2ccccc2C(=O)NCCCCCCCCCCCCNc2c3c(nc4ccccc24)CCCC3)c1C`, the values for the IC50 against Acetylcholinesterase [1] and on Acetylcholinesterase [2] were 0.0509 µM and 6.94 nM, respectively.
For the molecule `Cc1cccc(Nc2ccccc2C(=O)NCCC(=O)NCCCCCCCNc2c3c(nc4cc(Cl)ccc24)CCCC3)c1C`, the IC50 was 0.00667 µM against Acetylcholinesterase [1] and 10 nM on Acetylcholinesterase [2].
`Cc1cccc(Nc2ccccc2C(=O)NCC(=O)NCCCCNc2c3c(nc4cc(Cl)ccc24)CCCC3)c1C`: the IC50 against Acetylcholinesterase [1] is 0.156 µM; on Acetylcholinesterase [2], 89.4 nM.
Consider `Clc1c2c(nc3ccccc13)CCCC2`, for which the IC50 against Acetylcholinesterase [1] was over 25 µM; on Acetylcholinesterase [2], 83.9 nM.
With `Cc1cccc(Nc2ccccc2C(=O)NCCCCCC(=O)NCCCCCCNc2c3c(nc4ccccc24)CCCC3)c1C`, the IC50 stood at 1.44 µM against Acetylcholinesterase [1] and 34 nM at Acetylcholinesterase [2].
As to `Cc1cccc(Nc2ccccc2C(=O)NCCCCCC(=O)NCCCCCCCCNc2c3c(nc4ccccc24)CCCC3)c1C`, the IC50 was determined as 0.0187 µM against Acetylcholinesterase [1] and 6.26 nM at Acetylcholinesterase [2].
For the molecule `Cc1cccc(Nc2ccccc2C(=O)NCCC(=O)NCCCNc2c3c(nc4cc(Cl)ccc24)CCCC3)c1C`, the concentration for half-maximal inhibition (IC50) was determined as 0.0203 µM against Acetylcholinesterase [1] and 21.3 nM at Acetylcholinesterase [2].
Regarding `Cc1cccc(Nc2ccccc2C(=O)NCCCCCC(=O)NCCCCCCCNc2c3c(nc4ccccc24)CCCC3)c1C`, the IC50 came to 0.0036 µM on Acetylcholinesterase [1] and 3.66 nM at Acetylcholinesterase [2].
In the case of `Cc1cccc(Nc2ccccc2C(=O)NCC(=O)NCCCCCCCNc2c3c(nc4cc(Cl)ccc24)CCCC3)c1C`, the IC50 against Acetylcholinesterase [1] amounted to 0.000418 µM; at Acetylcholinesterase [2] it was 0.009 nM.
For `Cc1cccc(Nc2ccccc2C(=O)O)c1C` [MEFENAMIC ACID], the IC50 at Acetylcholinesterase [1] is over 1250 µM; on Acetylcholinesterase [2] it was 6120 nM.
Consider `Cc1cccc(Nc2ccccc2C(=O)NCCCCCCCNc2c3c(nc4ccccc24)CCCC3)c1C`, for which the IC50 turned out to be 0.00139 µM on Acetylcholinesterase [1] and 25.2 nM on Acetylcholinesterase [2].
In the same order, the values of `Cc1cccc(Nc2ccccc2C(=O)NCC(=O)NCCCCCCCCNc2c3c(nc4cc(Cl)ccc24)CCCC3)c1C` are 0.0398 µM and 18.1 nM.
As for `Cc1cccc(Nc2ccccc2C(=O)NCCC(=O)NCCCCNc2c3c(nc4cc(Cl)ccc24)CCCC3)c1C`, the results for the IC50 on Acetylcholinesterase [1] and on Acetylcholinesterase [2] were 2.47 µM and 33 nM, respectively.
As for `Cc1cccc(Nc2ccccc2C(=O)NCCCCCCCCCNc2c3c(nc4cc(Cl)ccc24)CCCC3)c1C`, the figures for the IC50 against Acetylcholinesterase [1] and at Acetylcholinesterase [2] were 0.00694 µM and 6.72 nM, respectively.
For `Cc1cccc(Nc2ccccc2C(=O)NCCCCCC(=O)NCCCCNc2c3c(nc4cc(Cl)ccc24)CCCC3)c1C`, the IC50 turned out to be 0.0374 µM against Acetylcholinesterase [1] and 0.299 nM at Acetylcholinesterase [2].
For the molecule `Cc1cccc(Nc2ccccc2C(=O)NCCCCCCNc2c3c(nc4cc(Cl)ccc24)CCCC3)c1C`, the half-inhibitory concentration (IC50) on Acetylcholinesterase [1] came out at 7.23 µM; on Acetylcholinesterase [2], 1.02 nM.
In the same order, the values of `Cc1cccc(Nc2ccccc2C(=O)NCCCC(=O)NCCCNc2c3c(nc4ccccc24)CCCC3)c1C` are 3.73 µM and 23 nM.
Regarding `Cc1cccc(Nc2ccccc2C(=O)NCCCCCCCCNc2c3c(nc4ccccc24)CCCC3)c1C`, the figures for the IC50 at Acetylcholinesterase [1] and on Acetylcholinesterase [2] were 0.0755 µM and 0.045 nM, respectively.
In the same order, the values of `Cc1cccc(Nc2ccccc2C(=O)NCCCC(=O)NCCCCCCCNc2c3c(nc4cc(Cl)ccc24)CCCC3)c1C` are 0.00791 µM and 6.55 nM.
For the molecule `Cc1cccc(Nc2ccccc2C(=O)NCC(=O)NCCCNc2c3c(nc4ccccc24)CCCC3)c1C`, the IC50 came out at 0.0873 µM at Acetylcholinesterase [1] and 47.5 nM at Acetylcholinesterase [2].
Turning to `Cc1cccc(Nc2ccccc2C(=O)NCCCCCC(=O)NCCCCCCNc2c3c(nc4cc(Cl)ccc24)CCCC3)c1C`, the IC50 turned out to be 0.00294 µM at Acetylcholinesterase [1] and 7.39 nM at Acetylcholinesterase [2].
Consider `Cc1cccc(Nc2ccccc2C(=O)NCCCC(=O)NCCCCNc2c3c(nc4ccccc24)CCCC3)c1C`, for which the IC50 against Acetylcholinesterase [1] was found to be 0.0897 µM; at Acetylcholinesterase [2], 14.6 nM.
In the same order, the values of `Cc1cccc(Nc2ccccc2C(=O)NCC(=O)NCCCCCCCNc2c3c(nc4ccccc24)CCCC3)c1C` are 0.00555 µM and 15.3 nM.
Regarding `Cc1cccc(Nc2ccccc2C(=O)NCCC(=O)NCCCNc2c3c(nc4ccccc24)CCCC3)c1C`, the IC50 against Acetylcholinesterase [1] was found to be 3.8 µM; on Acetylcholinesterase [2], 7.92 nM.
With `Cc1cccc(Nc2ccccc2C(=O)NCCCCCC(=O)NCCCCCCCCNc2c3c(nc4cc(Cl)ccc24)CCCC3)c1C`, the IC50 was determined as 0.0801 µM at Acetylcholinesterase [1] and 8.67 nM on Acetylcholinesterase [2].
In the case of `Cc1cccc(Nc2ccccc2C(=O)NCCCC(=O)NCCCCCCNc2c3c(nc4ccccc24)CCCC3)c1C`, the IC50 worked out at 0.195 µM on Acetylcholinesterase [1] and 29.9 nM at Acetylcholinesterase [2].
For `Cc1cccc(Nc2ccccc2C(=O)NCCC(=O)NCCCCCCCNc2c3c(nc4ccccc24)CCCC3)c1C`, the concentration for half-maximal inhibition (IC50) at Acetylcholinesterase [1] stood at 0.0139 µM; on Acetylcholinesterase [2] it was 1.02 nM.
For `Cc1cccc(Nc2ccccc2C(=O)NCCCCCCCCCNc2c3c(nc4ccccc24)CCCC3)c1C`, the values for the IC50 on Acetylcholinesterase [1] and at Acetylcholinesterase [2] were 0.00154 µM and 15.1 nM, respectively.
As for `Cc1cccc(Nc2ccccc2C(=O)NCCC(=O)NCCCCCCNc2c3c(nc4cc(Cl)ccc24)CCCC3)c1C`, the IC50 on Acetylcholinesterase [1] amounted to 0.00114 µM; at Acetylcholinesterase [2] it was 2.96 nM.
For the molecule `Cc1cccc(Nc2ccccc2C(=O)NCCC(=O)NCCCCCCCCNc2c3c(nc4ccccc24)CCCC3)c1C`, the IC50 on Acetylcholinesterase [1] worked out at 0.00858 µM; on Acetylcholinesterase [2] it was 4.07 nM.
As for `Clc1ccc2c(Cl)c3c(nc2c1)CCCC3`, the IC50 at Acetylcholinesterase [1] was over 50 µM.
As for `Cc1cccc(Nc2ccccc2C(=O)NCCCCCC(=O)NCCCCCCCNc2c3c(nc4cc(Cl)ccc24)CCCC3)c1C`, the IC50 at Acetylcholinesterase [1] worked out at 0.0111 µM; at Acetylcholinesterase [2] it was 13.4 nM.
